# From patent US20220160723A1, “PHARMACOLOGICAL MITIGATION OF LATE-STAGE TOXEMIA” (priority 2019, published 2022)
# “Also recorded” adds a separate entry of the source. Like-named read-outs stand apart in the source and are kept apart here.
# Tests used:
# [1] = system: CFL1; experiment: Western blot of total and phosphorylated CFL1 (Serine 3); type: cell-based, human; conditions: HBMEC
# Procedure: FIGS. 4A-4I show ET induced IGF-1R, MEK and Rac1 signaling activate (dephosphorylate) the actin depolymerizing protein coflin (CFL1). […] ET induced a significant decrease in phosphorylated CFL1. (see FIG. 4B). FIG. 4B show levels of phosphorylated CFL1 relative to total CFL1 quantified from 2 independent experiments. p values indicate standard deviation. […] Total and phosphorylated CFL1 (Serine 3) levels were determined by western blot. […] (see FIG. 4D). FIG. 4D show levels of phosphorylated CFL1 relative to total CFL1 in whole cell lysates from HBMEC treated with ET in the presence or absence of IGF-1R inhibitor AG1024 and quantified from 2 independent experiments. […] Total and phosphorylated CFL1 (Serine 3) levels were determined by western blot. […] Total and phosphorylated CFL1 (Serine 3) levels were determined by western blot. […] (see FIG. 4G). FIG. 4G show levels of phosphorylated CFL1 relative to total CFL1 in whole cell lysates from HBMEC treated with ET in the presence or absence of the Rac1 inhibitor NSC23766 and quantified from 2 independent experiments. p values indicate standard deviation. […] Activation (dephosphorylation) of SSH1 in ET-treated and control cells was assessed by monitoring the levels of SSHI phosphorylated at Serine 978 relative to total SSHI in whole cell lysates by western blot. SSHI phosphorylation was reduced relative to untreated control cells at 240 min after ET treatment. […] Total and phosphorylated CFL1 (Serine 3) levels were determined by western blot.
# [2] = system: ET-induced footpad swelling (edema); experiment: Mouse footpad swelling (edema) assay after ET injection; type: in vivo, mice; conditions: for protection against ET-induced footpad swelling (edema): in vivo mouse model, pre-treated mice, summary statement; for footpad swelling (edema) following ET injection: mice, 0.15 μg ET/paw (FIG. 5)
# [3] = system: Rac1; experiment: Rac1-GTP pull-down with PAK-Beads and western blot; type: cell-based, human; conditions: HBMEC, ET 250 ng/ml
# Procedure: FIGS. 2A-2E show ET induced actin rearrangement is dependent on Rac1 activation. […] Whole cell lysates were incubated with PAK-Beads, which specifically bind to GTP-bound Rac1. Bead bound Rac1-GTP and total Rac1 levels in cell lysate were determined by western blot with anti-Rac1 antibody. ET induced significant increase in Rac1-GTP (i.e. active Rac1) levels (see FIG. 2B). […] Cells were fixed and stained with cell mask green to visualize cytoplasm. Cell area was quantified from 8 wells for each treatment («-number of cells) using automated image analysis software. […] MRMEC were grown to confluence in transwell inserts, and treated with ET (250 ng/ml) for 24h, in the presence or absence of Rac1 inhibitor NSC23766 (50 μM). Changes in monolayer permeability were assessed by assaying the diffusion of Evans blue dye from apical to basal chamber of transwell inserts. […] Data represent mean changes in monolayer permeability from 2 independent experiments. p value indicates standard deviation.
# FIGS. 3A-3H show ET-mediated Rac1 activation and actin rearrangement is dependent on an early induction of IGF-1R, PI3K and MEK signaling. […] Activation of IGF-1R in ET˜ireated and control cells was assessed by monitoring the levels of IGF-1R phosphorylated at Tyrosine 1135 and 1136 relative to total IGF-1R in whole cell lysates by western blot. ET induced a rapid (within 10 minutes), but transient activation of IGF-1R. […] Cells were fixed and stained with CellMask green to visualize cytoplasm. Cell area was quantified from 8 wells for each treatment (n-number of cells) using automated image analysis software. […] Whole cell lysates were incubated with PAK-Beads, which specifically bind to GTP-bound Rac1 . Bead bound Rac1-GTP and total Rac1 levels in cell lysate were determined by western blot with anti-Rac 1 antibody. […] Total and phosphorylated […] (Thr 308 and Ser 473), as well as those of ERK (Thr 202 and Tyr 204) was determined by western blot. ET induced a rapid (within 10-20 minutes) phosphorylation of AKT and ERK. […] Changes in monolayer to permeability were assessed by assaying the diffusion of Evans blue dye from apical to basal chamber of transwell. […] Data represent mean changes in monolayer permeability from 2 independent experiments. p value indicates standard deviation. […] Whole cell lysates were incubated with PAK-Beads, which specifically bind to GTP-hound RacL Bead bound Rac1-GTP and total Rac1 levels in cell lysate were determined by western blot with anti-Rac1 antibody.
# [4] = system: HBMEC monolayer; experiment: Transwell monolayer permeability (Evans blue dye diffusion); type: cell-based, human; conditions: for ET induced disruption of monolayer integrity: HBMEC in transwell inserts, ET 250 ng/ml, 24 h, inhibitor 50 μM (FIG. 2E, 3G)
# [5] = system: Human Brain Microvascular Endothelial cells (HBMEC); type: cell-based; conditions: for ET induced cortical actin rearrangement: HBMEC, 4 h; for ET-mediated actin remodeling / rearrangement: cultured endothelial cells (HBMEC), summary statement
# [6] = system: Human Brain Microvascular Endothelial cells (HBMEC); experiment: Medium throughput quantification of whole cell area (CellMask green); type: cell-based; conditions: ET 250 ng/ml, 4 h, 8 wells per treatment (FIG. 2D, 3C)
# [7] = ET 250 ng/ml, 4 h (FIG. 4C, 4E, 4I)
# [8] = cultured HBMEC model, summary statement
# [9] = ET 250 ng/ml, phalloidin (FIG. 3B, 3F)
Compound,"ET induced CFL1 activation (dephosphorylation) [1, 7]",protection against ET-induced footpad swelling (edema) [2],footpad swelling (edema) following ET injection ([2]; pre-treatment 10 mg/kg),ET induced Rac1 activation (Rac1-GTP) ([3]; 4 h (FIG. 3D)),ET induced Rac1 activation (Rac1-GTP) ([3]; 4 h (FIG. 3H)),"ET-mediated cell-cell barrier disruption [4, 8]","ET induced cortical actin rearrangement [5, 9]",ET-mediated actin remodeling / rearrangement [5],ET induced cell area reduction [6],footpad swelling (edema) following ET injection ([2]; pre-treatment 33 mg/kg),ET induced disruption of monolayer integrity [4],footpad swelling (edema) following ET injection ([2]; pre-treatment 75 mg/kg),ET-mediated cell-cell barrier disruption [4],"ET induced CFL1 activation (dephosphorylation) ([1]; ET 50, 100 and 250 ng/ml, 4 h (FIG. 4F))",protection against ET-induced footpad swelling (edema) ([2]; trihydrochloride),"ET induced cortical actin rearrangement ([5]; ET 250 and 500 ng/ml, Alexa 488 phalloidin (FIG. 2C))",ET-mediated actin remodeling / rearrangement ([5]; trihydrochloride)
"CC(C)(C)c1cc(C=C(C#N)C#N)cc(Br)c1O [AG1024, 2-[(3-bromo-5˜iert-butyl-4-hydroxyphenyl)methylidene]propanedinitile]",significantly inhibited,near complete protection; also recorded: almost complete protection,consistently block,completely rescued,significantly inhibited,almost completely rescue,almost completely inhibited,strongly inhibit; also recorded: almost completely rescue,completely .rescued,,,,,,,,
O=C(NC[C@H](O)CO)c1ccncc1Nc1ccc(I)cc1F [AS703026],significantly inhibited,near complete protection; also recorded: almost complete protection,,,significantly inhibited,almost completely rescue,significantly reduced,strongly inhibit; also recorded: almost completely rescue,,consistently block,significantly reduced,,,,,,
CC(C)(C)c1cc(C(=O)/C(C#N)=N/Nc2cccc(Cl)c2)no1 [ES1-09],,,consistently block,,,,,,,,,,,,,,
"CS(=O)(=O)N1CCN(Cc2cc3nc(-c4cccc5[nH]ncc45)nc(N4CCOCC4)c3s2)CC1 [GDC-0941, pictilisib]",,near complete protection; also recorded: almost complete protection,,,,,,,,,,consistently block,almost completely rescue,,,,
"CCN(CC)CCCC(C)Nc1nc(C)cc(Nc2ccc3nc(C)cc(N)c3c2)n1.Cl.Cl.Cl (stereo not shown) [NSC23766, N(6)˜[2-[[4˜(diethylamino)-1-methylbutyl]amino]-6-methyl-4-pyrimidinyl]-2-methyl-4,6-quinolinediamine trihydrochloride]",significantly inhibited,,consistently block,completely rescued,,almost completely rescue,,,significantly reduced,,significantly reduced,,,significantly inhibited,near complete protection; also recorded: almost complete protection,almost completely inhibited,strongly inhibit; also recorded: almost completely rescue
